Source: patent US6083920A, “Compositions for modulating intracellular inositol trisphosphate concentration” (priority 1996, dated 2000)

What was measured:
[1] = test system: InsP3 signalling in primary chick cortical neurons; assay: Phosphoinositide hydrolysis assay (InsP3 signalling) in cultured primary cortical neurons; format: cell-based; conditions: for Ins-P-n, modulator Lsm:Sph: 20 μM Lysosphingomyelin + 20 μM Sphingosine; for Ins-P-n, modulator Psy:Sph: 20 μM Psychosine + 20 μM Sphingosine; for fold induction at 100 µM: Gallus gallus, Cortical neurone, 20 min, read-out: Ins-P-n (agonist alone); for physiological effect in this system: amino group amidated, non-ionic
Experimental: Primary cultures of neurons were prepared from the telencephalon of white Leghorn chick embryos on the eighth day of their development (Rosenberg et al., J.Biol. Chem. 267:10601-10612, 1992). The neurons were seeded in 24-well plastic tissue culture plates that had been coated with L-polylysine. The density of the neurons was 10^5 cells per well, and they were cultured in Dulbecco's modified Eagle's medium/Ham's high glucose F-12 medium (1:1, vol:vol) containing 500 ng/L sodium selenite, 500 μg/L transferrin, and 165 pmole/L EGF. The cultures were maintained at 37° C. under 5% CO2 in air for 4 days, by which time the cells had differentiated into neurite-bearing cortical granulocytic neurons. These cultures of mature embryonic neurons were used for phosphoinositide hydrolysis assays (as described in Example 2).
Receptor-stimulated and basal unstimulated hydrolysis of phosphoinositides was measured by the following procedure. In order to label the cellular phosphoinositides metabolically, the primary cultures of chick cortical neurons (described in Example 1) were incubated overnight with 0.5 ml Dulbecco's modified Eagle's medium containing 1 μCi [^3 H]myo-inositol per well. The cells were then washed twice with 1 ml Dulbecco's phosphate-buffered saline (PBS) and 0.5 ml of PBS containing 4.5 g/L glucose was added. Sphingosine, psychosine, lysosulphatide, or lysosphingomyelin, prepared as the hydrochloride salt dissolved in water, were then added to produce the desired extracellular concentration in specific wells, […] The cells were then washed twice with 1 ml PBS, and pre-incubated for 15 minutes at 37° C. with 0.5 ml PBS containing 10 mM LiCl and the compound to be tested was added. […] The tubes were vortexed thoroughly, then centrifuged at 500×g for 5 minutes to separate the aqueous and chloroform phases. For each sample, a 1.5-ml aliquot of the upper (aqueous) phase was applied to a small column containing BioRad AG1X8 resin (formate form). Free [^3 H]inositol and [^3 H]glycerophosphoinositol were washed through the column with 5 ml of a solution containing 5 mM sodium borate and 60 mM sodium formate. The total phosphorylated [^3 H] inositol fraction was eluted from the column for radiometric scintillation spectrometry analysis with 3 ml 1.0 M ammonium formate/0.1 M formic acid;
In addition, a 0.5 ml aliquot of the lower (chloroform) phase of each sample was analyzed radiometrically by scintillation spectrometry in order to determine the quantity of lipid-bound [^3 H]myo-inositol. Estimation of phosphoinositide hydrolysis by phospholipase C is based upon the quantity of [^3 H]inositol phosphates produced, and is expressed as the percentage of the latter relative to total free and componential [^3 H]inositol (dpm ammonium formate+dpm chloroform fractions).
Cultured primary chick cortical neurons that were prelabeled with [^3 H]myo-inositol were examined for enhanced InsP3 signalling in response to various agonists including glutamate, aspartate, and the metabotropic […] receptor agonists ibotenate and quisqualate.

[2] = test system: calcium ion signalling in cortical neurons; assay: Metabotropic receptor function: calcium ion signalling (fura 2) in intact cortical neurons; format: cell-based, chick; conditions: 10 μM agonist, 30 minutes at 37° C., fura 2 fluorescence ratio
Experimental: Metabotropic receptor function was examined in intact neurons by assaying lysosphingolipid modulation of calcium ion signalling. Approximately 1×10^6 cortical neurons were cultured on rectangular L-polylysine-coated coverslips and loaded with lysocerebroside or lysosphingomyelin to a level of 150±20 pmoles per mg protein. The neurons were returned to complete Ham's high glucose medium/DMEM (1:1, vol:vol) and infiltrated with 5 μM fura 2/AM (Molecular Probes, Eugene, Oreg.). Fura 2 is a calcium chelator whose fluorescence absorbance shifts to shorter wavelength upon calcium ion binding is measurable in intact cells. A change in intraneuronal calcium ion concentration was monitored as a change in the fluorescence spectrum.
The neurons were exposed to 10 μM glutamate agonist (for example, ibotenate) for 30 minutes at 37° C. The coverslips were then transferred to quartz cuvettes in medium containing 250 μM sulfinpyrazone to prevent fura 2/AM diffusion. Fluorescence ratios were recorded in a Perkin-Elmer LS-5 Fluorescence Spectrometer thermostatted at 37° C. at excitation wavelengths of 340 and 380 nm, a nd emission measurement at 500 nm. Calcium ion signalling in agonist-stimulated neurons was 3.0±0.2 arbitrary units for ibotenate-exposed neurons.

[3] = test system: rat C6 glioma cells; conditions: cited from earlier work
[4] = Membrane insertion potential
[5] = then 100 μM agonist 20 min, normalized to control = 1.00

Compound | Ins-P-n, modulator Lsm:Sph [1, 5] | Ins-P-n, modulator Psy:Sph [1, 5] | fold induction at 100 µM [1] | further results
N[C@@H](CC(=O)O)C(=O)O [Aspartate, aspartate] | 2.00 ± 0.05 | 2.65 ± 0.50 | 2.7 ± 0.06 | Ins-P-n, modulator Lsm ([1]; neurons preincubated with 20 μM Lysosphingomyelin 30 min, washed, then 100 μM agonist 20 min, normalized to control = 1.00): 1.00 ± 0.06; Ins-P-n, modulator Psy ([1]; neurons preincubated with 20 μM Psychosine 30 min, washed, then 100 μM agonist 20 min, normalized to control = 1.00): 1.00 ± 0.06
N[C@@H](CCC(=O)O)C(=O)O [Glutamate, glutamate] | 3.00 ± 0.10 | 3.00 ± 0.35 | 3.3 ± 0.05 | –
NC(C(=O)O)c1cc(O)no1 (stereo not drawn) [Ibotenate, ibotenate] | 2.10 ± 0.10 | 3.10 ± 0.35 | 3 ± 0.1 | calcium ion signalling in agonist-stimulated neurons [2]: 3.0±0.2 arbitrary units
CCCCCCCCCCCCC/C=C/[C@@H](O)[C@@H](N)CO[C@@H]1O[C@H](CO)[C@H](O)[C@H](OS(=O)(=O)O)[C@H]1O [Lysosulphatide] | – | – | – | inhibitory effect on InsP3 enhancement caused by sphingosine or metabotropic glutamate receptor agonists ([1]; cortical neurons): without inhibitory effect
CCCCCCCCCCCCC/C=C/[C@@H](O)[C@H](CO)NC(C)=O [N-acetyl sphingosine] | – | – | – | physiological effect in this system [1]: little or no physiological effect
CN(C)CCCN1c2ccccc2Sc2ccc(Cl)cc21 [chlorpromazine, 10-(3-dimethylaminopropyl)-2-chlorphenothiazine] | – | – | – | level of InsP3 [3]: raises the level of InsP3
CCCCCCCCCCCCCCC[C@@H](O)[C@@H](N)CO [sphinganine] | – | – | – | membrane insertion potential relative to sphingosine [4]: less than one third the membrane insertion potential of sphingosine
CN[C@@H]1C[C@H]2O[C@@](C)([C@@H]1OC)n1c3ccccc3c3c4c(c5c6ccccc6n2c5c31)C(=O)NC4 [staurosporine] | – | – | – | influence on the effects of sphingosine, lysocerebroside, or lysosphingomyelin on InsP3 production ([1]; brain neurons responsive to excitatory amino acids): does not influence
ceramide | – | – | – | physiological effect in this system [1]: little or no physiological effect
